Assay results reported in US20230219904A1 (SYNGENTA CROP PROTECTION AG, priority 2020, published 2023).

Legend:
Format in all cases: in vivo
Conditions in all cases: evaluated after 13 days
[1] = test system: Abutilon theophrasti (ABUTH); experiment: Pre-emergence herbicidal glasshouse test (Table B1)
Outline: (§1)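 Damage was rated 13 days after treatment as percentage injury, binned on a five-point scale (5=80-100%; 4=60-79%; 3=40-59%; 2=20-39%; 1=0-19%). Plants in soil pots were sprayed at 500 g/h unless otherwise indicated, pre-emergence after one day or post-emergence after 8 days of cultivation.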

[2] = test system: Amaranthus retoflexus (AMARE); experiment: as above
Outline: as §1

[3] = test system: Echinochloa crus-galh (ECHCG); experiment: as above
Outline: as §1

[4] = test system: Ipomoea hederacea (IPOHE); experiment: as above
Outline: as §1

[5] = test system: Setaria faberi (SETFA); experiment: as above
Outline: as §1

[6] = test system: Abutilon theophrasti (ABUTH); experiment: Post-emergence herbicidal glasshouse test (Table B1)
Outline: as §1

[7] = test system: Amaranthus retoflexus (AMARE); experiment: as above
Outline: as §1

[8] = test system: Echinochloa crus-galh (ECHCG); experiment: as above
Outline: as §1

[9] = test system: Ipomoea hederacea (IPOHE); experiment: as above
Outline: as §1

[10] = test system: Setaria faberi (SETFA); experiment: as above
Outline: as §1

Row | SMILES | PRE Application ABUTH, percentage damage on five-point scale ([1]; applied at 500 g/h) | PRE Application AMARE, percentage damage on five-point scale ([2]; applied at 500 g/h) | PRE Application ECHCG, percentage damage on five-point scale ([3]; applied at 500 g/h) | PRE Application IPOHE, percentage damage on five-point scale ([4]; applied) | PRE Application SETFA, percentage damage on five-point scale ([5]; applied at 500 g/h) | POST Application ABUTH, percentage damage on five-point scale ([6]; applied at 500 g/h) | POST Application AMARE, percentage damage on five-point scale ([7]; applied at 500 g/h) | POST Application ECHCG, percentage damage on five-point scale ([8]; applied at 500 g/h) | POST Application IPOHE, percentage damage on five-point scale ([9]; applied at 500 g/h) | POST Application SETFA, percentage damage on five-point scale ([10]; applied at 500 g/h) | PRE Application ABUTH, percentage damage on five-point scale ([1]; applied at 125 g/ha) | PRE Application AMARE, percentage damage on five-point scale ([2]; applied at 125 g/ha) | PRE Application ECHCG, percentage damage on five-point scale ([3]; applied at 125 g/ha) | PRE Application IPOHE, percentage damage on five-point scale ([4]; applied at 125 g/ha) | POST Application ABUTH, percentage damage on five-point scale ([6]; applied at 125 g/ha) | POST Application AMARE, percentage damage on five-point scale ([7]; applied at 125 g/ha) | POST Application ECHCG, percentage damage on five-point scale ([8]; applied at 125 g/ha) | POST Application IPOHE, percentage damage on five-point scale ([9]; applied at 125 g/ha) | POST Application SETFA, percentage damage on five-point scale ([10]; applied at 125 g/ha) | PRE Application SETFA, percentage damage on five-point scale ([5]; applied at 125 g/ha)
1 | CN(C)c1c(OC(F)(F)F)ccc(C(=O)Nc2nnnn2C)c1Cl [Compound 1.001] | 5 (5=80-100%) | 5 (5=80-100%) | 5 (5=80-100%) | 5 (5=80-100%) | 5 (5=80-100%) | 5 (5=80-100%) | 5 (5=80-100%) | 5 (5=80-100%) | 5 (5=80-100%) | 5 (5=80-100%) | – | – | – | – | – | – | – | – | – | –
2 | CC(=O)N(C)c1c(OC(F)(F)F)ccc(C(=O)Nc2nnnn2C)c1Cl [Compound 1.003] | 5 (5=80-100%) | 5 (5=80-100%) | 5 (5=80-100%) | 1 (1=0-19%) | 5 (5=80-100%) | 5 (5=80-100%) | 5 (5=80-100%) | 5 (5=80-100%) | 5 (5=80-100%) | – | – | – | – | – | – | – | – | – | – | –
3 | CNc1c(OC(F)(F)F)ccc(C(=O)Nc2nnnn2C)c1Cl [Compound 1.005] | 5 (5=80-100%) | 5 (5=80-100%) | 5 (5=80-100%) | 5 (5=80-100%) | 5 (5=80-100%) | 5 (5=80-100%) | 5 (5=80-100%) | 5 (5=80-100%) | 5 (5=80-100%) | 5 (5=80-100%) | – | – | – | – | – | – | – | – | – | –
4 | Cn1nnnc1NC(=O)c1ccc(OC(F)(F)F)c(NC(=O)C2CC2)c1Cl [Compound 1.006, 2-chloro-3-(cyclopropanecarbonylamino)-N-(1-methyltetrazol-5-yl)-4-(trifluoromethoxy)benzamide] | 5 (5=80-100%) | 5 (5=80-100%) | 5 (5=80-100%) | 2 (2=20-39%) | 5 (5=80-100%) | 5 (5=80-100%) | 5 (5=80-100%) | 5 (5=80-100%) | 5 (5=80-100%) | 5 (5=80-100%) | – | – | – | – | – | – | – | – | – | –
5 | CC(C)CC(=O)Nc1c(OC(F)(F)F)ccc(C(=O)Nc2nnnn2C)c1Cl [Compound 1.008] | 5 (5=80-100%) | 5 (5=80-100%) | 5 (5=80-100%) | 3 (3=40-59%) | 4 (4=60-79%) | 5 (5=80-100%) | 5 (5=80-100%) | 5 (5=80-100%) | 5 (5=80-100%) | 5 (5=80-100%) | – | – | – | – | – | – | – | – | – | –
6 | CC(F)C(=O)Nc1c(OC(F)(F)F)ccc(C(=O)Nc2nnnn2C)c1Cl (stereo not shown) [Compound 1.009] | 5 (5=80-100%) | 5 (5=80-100%) | 1 (1=0-19%) | 4 (4=60-79%) | 5 (5=80-100%) | 5 (5=80-100%) | 5 (5=80-100%) | 5 (5=80-100%) | 5 (5=80-100%) | 5 (5=80-100%) | – | – | – | – | – | – | – | – | – | –
7 | Cc1ncc(C(=O)Nc2c(OC(F)(F)F)ccc(C(=O)Nc3nnnn3C)c2Cl)s1 [Compound 1.010] | 5 (5=80-100%) | 5 (5=80-100%) | 1 (1=0-19%) | 2 (2=20-39%) | 2 (2=20-39%) | 5 (5=80-100%) | – | 5 (5=80-100%) | 5 (5=80-100%) | 5 (5=80-100%) | – | – | – | – | – | – | – | – | – | –
8 | Cc1cc(C(=O)Nc2c(OC(F)(F)F)ccc(C(=O)Nc3nnnn3C)c2Cl)no1 [Compound 1.011] | 4 (4=60-79%) | 5 (5=80-100%) | 1 (1=0-19%) | 4 (4=60-79%) | 1 (1=0-19%) | 5 (5=80-100%) | 5 (5=80-100%) | 5 (5=80-100%) | 5 (5=80-100%) | 4 (4=60-79%) | – | – | – | – | – | – | – | – | – | –
9 | CCn1nnnc1NC(=O)c1ccc(OC(F)(F)F)c(NC(C)=O)c1Cl [Compound 1.015] | 5 (5=80-100%) | 5 (5=80-100%) | 4 (4=60-79%) | 1 (1=0-19%) | 2 (2=20-39%) | 5 (5=80-100%) | 5 (5=80-100%) | 5 (5=80-100%) | 5 (5=80-100%) | 5 (5=80-100%) | – | – | – | – | – | – | – | – | – | –
10 | CCC(C)C(=O)Nc1c(OC(F)(F)F)ccc(C(=O)Nc2nnnn2C)c1Cl (stereo not shown) [Compound 1.055] | – | – | – | – | – | – | – | – | – | – | 5 (5=80-100%) | 5 (5=80-100%) | 5 (5=80-100%) | 4 (4=60-79%) | 5 (5=80-100%) | 5 (5=80-100%) | 5 (5=80-100%) | 4 (4=60-79%) | 5 (5=80-100%) | –
11 | Cn1nnnc1NC(=O)c1ccc(OC(F)F)c(NC(=O)c2cc(Cl)ccn2)c1Cl [Compound 1.086] | – | – | – | – | – | – | – | – | – | – | 5 (5=80-100%) | 5 (5=80-100%) | – | 4 (4=60-79%) | 4 (4=60-79%) | 5 (5=80-100%) | 4 (4=60-79%) | 5 (5=80-100%) | 4 (4=60-79%) | 4 (4=60-79%)
12 | Cn1nnnc1NC(=O)c1ccc(OC(F)F)c(NC(=O)c2nc(Cl)ccc2Cl)c1Cl [Compound 1.088] | – | – | – | – | – | – | – | – | – | – | 4 (4=60-79%) | 5 (5=80-100%) | – | 4 (4=60-79%) | 4 (4=60-79%) | 4 (4=60-79%) | 3 (3=40-59%) | 4 (4=60-79%) | 4 (4=60-79%) | 5 (5=80-100%)
13 | Cn1nnnc1NC(=O)c1ccc(OC(F)F)c(NC(=O)c2ncc(F)cc2F)c1Cl [Compound 1.089] | – | – | – | – | – | – | – | – | – | – | 2 (2=20-39%) | 5 (5=80-100%) | – | 3 (3=40-59%) | 3 (3=40-59%) | 4 (4=60-79%) | 2 (2=20-39%) | 3 (3=40-59%) | 4 (4=60-79%) | 3 (3=40-59%)
14 | CCn1nnnc1NC(=O)c1ccc(OC(F)(F)F)c(NC(=O)C(C)(C)C)c1Cl [Compound 1.106] | 5 (5=80-100%) | 5 (5=80-100%) | 5 (5=80-100%) | – | 5 (5=80-100%) | 5 (5=80-100%) | 5 (5=80-100%) | 5 (5=80-100%) | 5 (5=80-100%) | 5 (5=80-100%) | – | – | – | – | – | – | – | – | – | –
